# Reference: ChEMBL document CHEMBL1201862, “PubChem BioAssay data set” (2004)
#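 Values below derive from 48-hour exposures of cells grown in 96-well plates, with endpoints linearly interpolated between the two concentrations bracketing the appropriate inhibition level. GI50 marks 50% less growth.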 Calls of active or inactive are those of the source. No stated cut-off is given here; in the data, active = GI50 up to about 1.1 µM and inactive = higher.
# Experiments:
# Assay in all cases: NCI-60 cell line screen, 48 h
# [1] = tested on: A498
# [2] = tested on: ACHN
# [3] = tested on: CAKI-1
# [4] = tested on: COLO 205
# [5] = tested on: DU-145
# [6] = tested on: HCT-116
# [7] = tested on: HCT-15
# [8] = tested on: HOP-62
# [9] = tested on: Hs-578T
# [10] = tested on: IGROV-1
# [11] = tested on: LOX IMVI
# [12] = tested on: MDA-N
# [13] = tested on: Malme-3M
# [14] = tested on: RPMI-8226
# [15] = tested on: SK-MEL-5
# [16] = tested on: SN12C
# [17] = tested on: SR
# [18] = tested on: UACC-257
# [19] = tested on: SK-OV-3
SMILES,GI50 [1],GI50 [2],GI50 [3],GI50 [4],GI50 [5],GI50 [6],GI50 [7],GI50 [8],GI50 [9],GI50 [10],GI50 [11],GI50 [12],GI50 [13],GI50 [14],GI50 [15],GI50 [16],GI50 [17],GI50 [18],GI50 [19]
Cc1cn([C@@H]2C[C@H](CO)[C@@H]2O)c(=O)[nH]c1=O,> 100 µM (inactive),> 100 µM (inactive),> 100 µM (inactive),> 100 µM (inactive),> 100 µM (inactive),> 100 µM (inactive),> 100 µM,> 100 µM (inactive),> 100 µM (inactive),> 100 µM (inactive),> 100 µM (inactive),> 100 µM (inactive),> 100 µM (inactive),> 100 µM (inactive),> 100 µM (inactive),> 100 µM (inactive),> 100 µM (inactive),> 100 µM (inactive),
CCOC(=O)CC(=O)Nc1c(C(=O)OCC)sc2nc(SC)nc(Nc3ccc(OC)c(OC)c3)c12,28.9 µM (inactive),19.8 µM (inactive),64 µM (inactive),> 100 µM (inactive),39.7 µM (inactive),39.4 µM (inactive),39.9 µM,,7.73 µM (inactive),28.7 µM (inactive),39.4 µM (inactive),> 100 µM (inactive),> 100 µM (inactive),,> 100 µM (inactive),60.3 µM (inactive),,> 100 µM (inactive),
CCc1n[nH]c(=O)n1/N=C/c1ccc(C)cc1,79.6 µM (inactive),> 100 µM (inactive),> 100 µM (inactive),> 100 µM (inactive),65.2 µM (inactive),97.9 µM (inactive),> 100 µM,37.7 µM (inactive),3.84 µM (inactive),91 µM (inactive),69.8 µM (inactive),> 100 µM (inactive),> 100 µM (inactive),72.1 µM (inactive),> 100 µM (inactive),> 100 µM (inactive),,97.7 µM (inactive),> 100 µM (inactive)
COc1ccc(/C=N/n2c(Cc3ccc(Cl)cc3)n[nH]c2=O)cc1,39.3 µM (inactive),45.1 µM (inactive),30.8 µM (inactive),32 µM (inactive),30.3 µM (inactive),24.9 µM (inactive),38 µM,15.2 µM (inactive),,16 µM (inactive),,> 100 µM (inactive),,> 100 µM (inactive),,59.7 µM (inactive),37.3 µM (inactive),> 100 µM (inactive),36 µM (inactive)
CC1(C)C2CC(O)C1(C)CC2=O (stereo not given),,> 100 µM (inactive),,> 100 µM (inactive),> 100 µM (inactive),> 100 µM (inactive),> 100 µM,> 100 µM (inactive),> 100 µM (inactive),> 100 µM (inactive),> 100 µM (inactive),> 100 µM (inactive),> 100 µM (inactive),> 100 µM (inactive),> 100 µM (inactive),> 100 µM (inactive),> 100 µM (inactive),> 100 µM (inactive),> 100 µM (inactive)
CC(=O)Nc1ccccc1C=C1c2ccccc2-c2ccccc21,36.3 µM (inactive),42.7 µM (inactive),63 µM (inactive),78.2 µM (inactive),33.2 µM (inactive),29.7 µM (inactive),45.8 µM,19.5 µM (inactive),> 100 µM (inactive),33 µM (inactive),> 100 µM (inactive),> 100 µM (inactive),> 100 µM (inactive),50.2 µM (inactive),57.3 µM (inactive),19.1 µM (inactive),98.9 µM (inactive),56.8 µM (inactive),
N#Cc1c(-c2ccco2)c2c(n(C3OC(CO)C(O)C(O)C3O)c1=S)CCCC2 (stereo not given),> 100 µM (inactive),> 100 µM (inactive),> 100 µM (inactive),> 100 µM (inactive),> 100 µM (inactive),> 100 µM (inactive),> 100 µM,> 100 µM (inactive),> 100 µM (inactive),> 100 µM (inactive),> 100 µM (inactive),> 100 µM (inactive),> 100 µM (inactive),,85.9 µM (inactive),> 100 µM (inactive),> 100 µM (inactive),> 100 µM (inactive),> 100 µM (inactive)
COC(=O)c1ccccc1C1=C([N+](=O)[O-])C(c2ccccc2)C(C#N)=C(N)O1 (stereo not given),,54.7 µM (inactive),,50.8 µM (inactive),72.1 µM (inactive),> 100 µM (inactive),19.8 µM,> 100 µM (inactive),18.1 µM (inactive),> 100 µM (inactive),> 100 µM (inactive),> 100 µM (inactive),,34.5 µM (inactive),> 100 µM (inactive),> 100 µM (inactive),36.3 µM (inactive),> 100 µM (inactive),> 100 µM (inactive)
